Values quoted from earlier work in US20240269079A1, “MELATONIN FORMULATION IN SOLID DOSAGE FORM” (AGB-Pharma AB, priority 2021, published 2024).

Tests used:
[1] = after administration

Solubility in aqueous solutions: low solubility
Time for blood levels to return to normal daytime levels [1]: 6 to 8 h
Structure (SMILES): COc1ccc2[nH]cc(CCNC(C)=O)c2c1 [melatonin, N-acetyl-5-methoxytryptamine]
